The test system of assay [1] is coaggregation of Fusobacterium nucleatum ssp. polymorphum ATCC10953 with Streptococcus sobrinus B13. As to the kind of experiment: Coaggregation inhibition test (precipitation of a clump). The following applies: 200 μL of 2% (wt/vol %) test substance solution, room temperature for 30 minutes; for precipitation due to coaggregation: result in words. On the set-up: key to Coaggregation inhibition effect: the mixture in which no precipitation of a clump was observed was evaluated that test substance had a coaggregation inhibition effect (+); the mixture in which precipitation was observed was evaluated that the test substance had no coaggregation inhibition effect (−). In kind it is cell-based. The procedure:
(§1) Streptococcus sobrinus B13 was used as cariogenic bacteria, while Fusobacterium nucleatum ssp. polymorphum ATCC10953 was used as bacteria of the genus Fusobacterium.
After inoculation of Streptococcus sobrinus into a brain heart infusion broth, it was cultured at 37° C. for 24 hours under an anaerobic condition. Fusobacterium nucleatum ssp. polymorphum was, on the other hand, inoculated into a GAM bouillon medium and then cultured at 37° C. for 48 hours under an anaerobic condition. After completion of the cultivation, bacteria were collected by centrifugal separation and washed twice with a coaggregation buffer (1 mM tris(hydroxymethyl)aminomethane, 0.1 mM calcium chloride, 0.1 mM magnesium chloride, and 0.15 M sodium chloride). After washing, Fusobacterium nucleatum and Streptococcus sobrinus were adjusted with the coaggregation buffer to give a turbidity (OD: UV-1600, UV-Visible spectrophotometer (product of Shimadzu Corporation)), at wavelength of 600 nm, of 2.0, whereby bacteria suspensions were prepared. Test substances such as a compound represented by the formula (A) were adjusted in advance with the coaggregation buffer to give a concentration of 2% (wt/vol %). Galactose laurate was synthesized in a known manner (Patent Document 2: JP-A-2000-159675). As the other test substances, lactose, galactose, sucrose, glucose, and fructose (each, product of Wako Pure Chemicals), and β-lauryl glucoside, β-lauryl maltoside and sucrose monolaurate (each, product of Dojindo Laboratories) were employed. In the coaggregation test, 400 μL of the suspension of Fusobacterium nucleatum, 200 μL of the suspension of Streptococcus sobrinus, and 200 μL of the 2% (wt/vol %) solution of the test substance were mixed successively by using a No. 2 RIA tube (product of Asahi Techno Glass).

Assay [2] has the same test system. As to the kind of experiment: Percent coaggregation by turbidity change (Vmax, OD 600 nm). Conditions: final concentration 10% (wt/vol %); Vmax of coaggregation buffer control = 100%. The assay is classed as cell-based. On the procedure:
as §1
The cariogenic bacteria and bacteria of the genus Fusobacterium were cultured on a brain heart infusion broth (product of Becton, Dickinson and Company) and a GAM broth (product of Nissui Pharmaceutical), respectively, under the conditions of 37° C., and 10% CO2, 10% H2, and 80% N2 during from the logarithmic phase to stationary phase. The respective bacteria were collected by centrifugal separation at 5,000 rpm for 5 minutes. After centrifugal washing (for 5 minutes at 5,000 rpm) three times with a coaggregation buffer (1 mM tris(hydroxymethyl)aminomethane, 0.1 mM calcium chloride, 0.1 mM magnesium chloride, and 0.15 M sodium chloride), they were each adjusted to have a turbidity OD at 600 nm of 2.0.
After addition of 60 μL of each of mannitol, palatinit, erythritol, xylitol, sorbitol and lactitol (product of Wako Pure Chemicals) to a 96-well microtiterplate to give the final concentration of 10% (wt/vol %), 30 μL of the bacteria of the genus Fusobacterium was dispensed and stirred, followed by the addition of 30 μL of the cariogenic bacteria. Then, by using a microplate reader (product of Molecular Devices), the turbidity (OD at 600 nm) was measured at one-minute intervals for 30 minutes and a change ratio Vmax (mOD/min) of the turbidity was calculated. Using the Vmax of a similar mixture containing the coaggregation buffer instead of the test substance as control (100%), the percent coaggregation was calculated. Based on a value thus obtained, the coaggregation reaction was measured.

With `CCCCCCCCCCCCO[C@@H]1O[C@H](CO)[C@@H](O)[C@H](O)[C@H]1O` [β-Lauryl glucoside, β-lauryl glucoside], in assay [1], the Coaggregation inhibition effect result is listed as “−” and the “precipitation due to coaggregation” value is recorded as “obvious precipitation due to coaggregation is observed”.

Turning to `OC[C@@H](O)[C@@H](O)CO` [erythritol], the percent coaggregation in assay [2] was 35%.

`OC[C@@H](O)[C@@H](O[C@@H]1O[C@H](CO)[C@H](O)[C@H](O)[C@H]1O)[C@H](O)[C@@H](O)CO` [lactitol]: the percent coaggregation in assay [2] was found to be 0%.

`OC[C@@H](O)[C@H](O)[C@@H](O)CO` [xylitol]: in assay [2], the percent coaggregation is given as 20%.

Take `CCCCCCCCCCCCOCCOCCOCCO[C@@H]1O[C@H](CO)[C@H](O)[C@H](O)[C@H]1O` [β-Trioxyethylene dodecylgalactoside, β-trioxyethylene lauryl galactoside]: in assay [1], the Coaggregation inhibition effect entry was “+” and the “precipitation due to coaggregation” value is recorded as “no precipitation due to coaggregation is observed”.

For `O=C(CO)[C@@H](O)[C@H](O)[C@H](O)CO` [Fructose, fructose], in assay [1], the Coaggregation inhibition effect entry is “−” and the “precipitation due to coaggregation” value is listed as “obvious precipitation due to coaggregation is observed”.

For `OC[C@H]1O[C@@H](O[C@H]2[C@H](O)[C@@H](O)C(O)O[C@@H]2CO)[C@H](O)[C@@H](O)[C@H]1O` (stereo partly shown) [Lactose, lactose], in assay [1], the Coaggregation inhibition effect result is on record as “+” and the “precipitation due to coaggregation” value is recorded as “no precipitation due to coaggregation is observed”.

Consider `OC[C@H]1O[C@@](CO)(O[C@H]2O[C@H](CO)[C@@H](O)[C@H](O)[C@H]2O)[C@@H](O)[C@@H]1O` [Sucrose, sucrose], for which, in assay [1], the Coaggregation inhibition effect entry is “−” and the “precipitation due to coaggregation” value is “obvious precipitation due to coaggregation is observed”.

With `CCCCCCCCCCCCO[C@@H]1O[C@H](CO)[C@@H](O[C@H]2O[C@H](CO)[C@@H](O)[C@H](O)[C@H]2O)[C@H](O)[C@H]1O` [β-Lauryl maltoside, β-lauryl maltoside], in assay [1], the Coaggregation inhibition effect entry is recorded as “−” and the “precipitation due to coaggregation” value was “obvious precipitation due to coaggregation is observed”.

Regarding “Galactose laurate [Galactose monolaurate]”, in assay [1], the Coaggregation inhibition effect result is “+” and the “precipitation due to coaggregation” value is on record as “no precipitation due to coaggregation is observed”.

For the compound `CCCCCCCCO[C@H]1O[C@H](CO)[C@H](O)[C@H](O)[C@H]1O` [α-Octyl galactoside, α-octyl galactoside], in assay [1], the Coaggregation inhibition effect entry is listed as “+” and the “precipitation due to coaggregation” value is “no precipitation due to coaggregation is observed”.

Turning to `OC[C@@H](O)[C@@H](O)[C@H](O)[C@H](O)CO` [mannitol], in assay [2], the percent coaggregation stood at 16%.

With `O=C[C@H](O)[C@@H](O)[C@@H](O)[C@H](O)CO` [Galactose, galactose], in assay [1], the Coaggregation inhibition effect result was “+” and the “precipitation due to coaggregation” value is on record as “no precipitation due to coaggregation is observed”.

For the compound sucrose monolaurate, in assay [1], the Coaggregation inhibition effect entry is given as “−” and the “precipitation due to coaggregation” value is reported as “obvious precipitation due to coaggregation is observed”.

The compound `OC[C@@H](O)[C@@H](O)[C@H](O)[C@@H](O)CO` [sorbitol] returned a percent coaggregation in assay [2] of 62%.

With palatinit, the percent coaggregation in assay [2] is listed as 71%.

For `CCCCCCCCO[C@@H]1O[C@H](CO)[C@H](O)[C@H](O)[C@H]1O` [β-octyl galactoside], in assay [1], the Coaggregation inhibition effect result is listed as “+” and the “precipitation due to coaggregation” value is on record as “no precipitation due to coaggregation is observed”.

These data come from patent publication US8834852B2, “Composition for oral cavity” (Kao Corporation, priority 2004, dated 2014).
